From patent US20250026721A1, “COMPOUNDS AND METHODS FOR MODULATING RAS-PI3K” (Vividion Therapeutics, Inc., priority 2023, published 2025)

These molecules were tested against T1, PIK3CA (Homo sapiens, UniProt P42336) (assay: In vitro ELISA target engagement assay for PIK3CA in Jurkat cellular lysate (competition with PIK3CA Biotin Probe)). Conditions: 1 hour at rt, then 500 nM PIK3CA Biotin Probe, read-out: Elisa Target Engagement Assay (TE50).
T1 construct: endogenous in cells; host or cells: Jurkat cell lysate
T1 sequence (P42336 whole entry): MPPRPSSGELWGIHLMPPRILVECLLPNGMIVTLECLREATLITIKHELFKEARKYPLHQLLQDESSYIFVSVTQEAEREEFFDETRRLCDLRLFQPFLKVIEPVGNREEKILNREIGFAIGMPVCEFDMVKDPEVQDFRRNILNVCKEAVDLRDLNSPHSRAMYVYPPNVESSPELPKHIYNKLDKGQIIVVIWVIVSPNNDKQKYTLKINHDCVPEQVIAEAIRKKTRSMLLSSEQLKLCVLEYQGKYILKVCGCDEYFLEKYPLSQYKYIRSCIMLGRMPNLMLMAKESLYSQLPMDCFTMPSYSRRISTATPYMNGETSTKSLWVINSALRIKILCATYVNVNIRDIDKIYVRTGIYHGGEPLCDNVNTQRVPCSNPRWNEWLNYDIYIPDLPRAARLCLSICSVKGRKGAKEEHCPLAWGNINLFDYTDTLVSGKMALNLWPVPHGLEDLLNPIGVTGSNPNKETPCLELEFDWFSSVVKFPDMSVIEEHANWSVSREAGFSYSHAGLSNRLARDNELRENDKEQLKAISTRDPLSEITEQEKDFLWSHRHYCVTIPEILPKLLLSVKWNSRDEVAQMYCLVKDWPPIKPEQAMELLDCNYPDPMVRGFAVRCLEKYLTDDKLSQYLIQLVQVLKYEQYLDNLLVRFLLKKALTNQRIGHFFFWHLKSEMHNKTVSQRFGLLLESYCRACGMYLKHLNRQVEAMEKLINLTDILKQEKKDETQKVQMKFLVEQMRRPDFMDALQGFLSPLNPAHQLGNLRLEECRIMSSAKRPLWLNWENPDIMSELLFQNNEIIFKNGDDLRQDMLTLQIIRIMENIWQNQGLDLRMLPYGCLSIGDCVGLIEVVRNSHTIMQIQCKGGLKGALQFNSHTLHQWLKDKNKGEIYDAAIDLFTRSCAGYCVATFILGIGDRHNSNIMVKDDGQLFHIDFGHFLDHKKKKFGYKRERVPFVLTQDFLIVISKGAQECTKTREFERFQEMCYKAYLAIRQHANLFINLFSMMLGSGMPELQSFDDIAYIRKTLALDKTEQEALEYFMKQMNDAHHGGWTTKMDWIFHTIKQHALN
T1 sequence (P27986 whole entry partner): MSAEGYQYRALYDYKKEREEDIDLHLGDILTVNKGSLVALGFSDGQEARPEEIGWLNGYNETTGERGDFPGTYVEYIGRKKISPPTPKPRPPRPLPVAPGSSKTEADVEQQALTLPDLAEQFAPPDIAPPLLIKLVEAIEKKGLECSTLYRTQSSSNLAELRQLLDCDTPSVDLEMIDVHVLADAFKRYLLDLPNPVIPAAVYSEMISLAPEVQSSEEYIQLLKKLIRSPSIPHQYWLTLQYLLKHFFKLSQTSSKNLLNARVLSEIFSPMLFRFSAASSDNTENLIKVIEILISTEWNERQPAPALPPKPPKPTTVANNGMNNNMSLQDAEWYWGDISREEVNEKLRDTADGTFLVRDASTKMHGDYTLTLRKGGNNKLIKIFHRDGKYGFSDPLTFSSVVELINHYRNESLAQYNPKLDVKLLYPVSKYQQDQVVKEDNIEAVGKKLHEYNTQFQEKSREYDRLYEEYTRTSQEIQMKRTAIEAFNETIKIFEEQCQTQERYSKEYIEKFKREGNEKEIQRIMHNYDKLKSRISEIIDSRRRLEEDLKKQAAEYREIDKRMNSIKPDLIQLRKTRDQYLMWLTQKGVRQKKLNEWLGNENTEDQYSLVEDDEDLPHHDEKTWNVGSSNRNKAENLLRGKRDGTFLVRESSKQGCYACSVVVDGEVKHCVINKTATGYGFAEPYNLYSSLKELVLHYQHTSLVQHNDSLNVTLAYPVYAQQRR
Type: binding
Method in brief: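 Competition format in Jurkat lysate: compound (serial dilutions, top 200 μM) for 1 h at rt, then 500 nM final biotinylated PIK3CA probe for 1 h at rt. Sandwich ELISA with capture antibody and Neutravidin-HRP luminescence read-out measured probe-labelled PIK3CA, giving TE50.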

| Structure (SMILES) | IC50 [nM] |
| --- | --- |
| C[C@H](/C=C/S(=O)(=O)C1CNC1)NC(=O)C1(F)CCN(S(=O)(=O)c2ccc(Br)cc2-c2ccccc2Cl)CC1 [Compound 76, (R,E)-N-(4-(azetidin-3-ylsulfonyl)but-3-en-2-yl)-1-((5-bromo-2′-chloro-[1,1′-biphenyl]-2-yl)sulfonyl)-4-fluoropiperidine-4-carboxamide] | 32 |
| C[C@@H]1C[C@](F)(C(=O)NC/C=C\C(=O)N2CC(F)(F)C2)CCN1S(=O)(=O)c1ccc(Br)cc1-c1ccccc1Cl [Compound 291, (2R,4S)-1-((5-bromo-2′-chloro-[1,1′-biphenyl]-2-yl)sulfonyl)-N-((Z)-4-(3,3-difluoroazetidin-1-yl)-4-oxobut-2-en-1-yl)-4-fluoro-2-methylpiperidine-4-carboxamide] | 320 |
| COC1(C(=O)N[C@H](C)/C=C\S(C)(=O)=O)CCN(S(=O)(=O)c2ccc(C(F)(F)F)cc2-c2ccccc2Cl)CC1 [Compound 139, (R,Z)-1-((2′-chloro-5-(trifluoromethyl)-[1,1′-biphenyl]-2-yl)sulfonyl)-4-methoxy-N-(4-(methylsulfonyl)but-3-en-2-yl)piperidine-4-carboxamide] | 330 |
| C[C@H](/C=C\S(C)(=O)=O)NC(=O)C1(F)CCN(S(=O)(=O)c2ccc(CO)cc2-c2ccccc2Cl)CC1 [Compound 130, (R,Z)-1-((2′-chloro-5-(hydroxymethyl)-[1,1′-biphenyl]-2-yl)sulfonyl)-4-fluoro-N-(4-(methylsulfonyl)but-3-en-2-yl)piperidine-4-carboxamide] | 470 |
| C[C@H](/C=C\S(C)(=O)=O)NC(=O)C1(F)CCN(C(=O)[C@H]2CCN(CC(F)(F)F)C[C@@H]2c2ccccc2Cl)CC1 (single isomer, unassigned) [Compound 307, 1-((3*S,4*S)-3-(2-chlorophenyl)-1-(2,2,2-trifluoroethyl)piperidine-4-carbonyl)-4-fluoro-N-((R,Z)-4-(methylsulfonyl)but-3-en-2-yl)piperidine-4-carboxamide] | 845 |
| O=C(/C=C\CNC(=O)C1(F)CCN(S(=O)(=O)c2ccc(Br)cc2-c2ccccc2Cl)CC1)N1CCC1 [Compound 286, (Z)-N-(4-(azetidin-1-yl)-4-oxobut-2-en-1-yl)-1-((5-bromo-2′-chloro-[1,1′-biphenyl]-2-yl)sulfonyl)-4-fluoropiperidine-4-carboxamide] | 640 |
| C[C@H](/C=C/C(=O)N1CC(F)(F)C1)NC(=O)[C@]1(F)CCN(S(=O)(=O)c2cnc(C(F)(F)F)cc2-c2ccccc2Cl)[C@H](C)C1 [Compound 215, (2R,4S)-1-((4-(2-chlorophenyl)-6-(trifluoromethyl)pyridin-3-yl)sulfonyl)-N-((R,E)-5-(3,3-difluoroazetidin-1-yl)-5-oxopent-3-en-2-yl)-4-fluoro-2-methylpiperidine-4-carboxamide] | 490 |
| C[C@H](/C=C\S(C)(=O)=O)NC(=O)C1(F)CCN(C(=O)[C@H]2CN(C(=O)C(C)(C)C)C[C@H]2c2ccccc2Cl)CC1 [Compound 161, 1-((3R,4R)-4-(2-chlorophenyl)-1-pivaloylpyrrolidine-3-carbonyl)-4-fluoro-N-((R,Z)-4-(methylsulfonyl)but-3-en-2-yl)piperidine-4-carboxamide] | 800 |
| C[C@H](/C=C\S(C)(=O)=O)NC(=O)C1(F)CCN(C(=O)[C@H]2CN(CC(F)(F)C(F)(F)F)C[C@H]2c2ccccc2Cl)CC1 [Compound 182, 1-((3R,4R)-4-(2-chlorophenyl)-1-(2,2,3,3,3-pentafluoropropyl)pyrrolidine-3-carbonyl)-4-fluoro-N-((R,Z)-4-(methylsulfonyl)but-3-en-2-yl)piperidine-4-carboxamide] | 910 |
| CCc1ccccc1-c1cc(Br)ccc1S(=O)(=O)N1CCC(F)(C(=O)N[C@H](C)/C=C\S(C)(=O)=O)CC1 [Compound 51, (R,Z)-1-((5-bromo-2′-ethyl-[1,1′-biphenyl]-2-yl)sulfonyl)-4-fluoro-N-(4-(methylsulfonyl)but-3-en-2-yl)piperidine-4-carboxamide] | 550 |
| COc1ccc(S(=O)(=O)N2CCC(F)(C(=O)N[C@H](C)/C=C/C(=O)N3CC(F)(F)C3)CC2)c(-c2ccccc2Cl)c1 [Compound 137, (R,E)-1-((2′-chloro-5-methoxy-[1,1′-biphenyl]-2-yl)sulfonyl)-N-(5-(3,3-difluoroazetidin-1-yl)-5-oxopent-3-en-2-yl)-4-fluoropiperidine-4-carboxamide] | 380 |
| C[C@H](/C=C\S(C)(=O)=O)NC(=O)C1(F)CCN(C(=O)[C@H]2CN(CC(F)(F)c3ccccc3)C[C@H]2c2ccccc2Cl)CC1 [Compound 181, 1-((3R,4R)-4-(2-chlorophenyl)-1-(2,2-difluoro-2-phenylethyl)pyrrolidine-3-carbonyl)-4-fluoro-N-((R,Z)-4-(methylsulfonyl)but-3-en-2-yl)piperidine-4-carboxamide] | 700 |
| C[C@H](/C=C\S(C)(=O)=O)NC(=O)C1(F)CCN(S(=O)(=O)c2ccc(Br)cc2-c2cccc(Cl)c2)CC1 [Compound 55, (R,Z)-1-((5-bromo-3′-chloro-[1,1′-biphenyl]-2-yl)sulfonyl)-4-fluoro-N-(4-(methylsulfonyl)but-3-en-2-yl)piperidine-4-carboxamide] | 710 |
| N#C/C=C/CNC(=O)C1(F)CCN(S(=O)(=O)c2cnc(Cl)cc2-c2ccccc2Cl)CC1 [Compound 232, (E)-1-((6-chloro-4-(2-chlorophenyl)pyridin-3-yl)sulfonyl)-N-(3-cyanoallyl)-4-fluoropiperidine-4-carboxamide] | 520 |

The molecules below were run against T2, PIK3CA_C242 (Homo sapiens, UniProt P42336) (assay: Proteomic TE50 (IA-DTB / TMT mass spectrometry) in Jurkat cell lysate). Conditions: 1 hour at rt, 7-point dose response.
T2 construct: endogenous in cells; host or cells: Jurkat cell lysate
T2 sequence (P42336 whole entry): as the sequence (P42336 whole entry) above
T2 sequence (P27986 whole entry partner): as the sequence (P27986 whole entry partner) above
Type: binding
Experimental: Example 4. Proteomic TE50 In vitro TE50 values for PIK3CA_C242 were obtained by treating 500 μg of cell lysate generated from Jurkat cells with DMSO or compound for 1 hour at rt followed by the addition of 200 μM desthiobiotin polyethyleneoxide iodoacetamide (IA-DTB) in DMSO for one hour at rt. Compounds were serially diluted 1:5 for a total of 7 points in order to generate dose response curves. Samples were then precipitated by the addition of 8× ice cold acetone and incubated at -80° C. for two hours. Protein was then pelleted by centrifugation (4,200 RPM, 45 min, 4° C.). The pelleted material was resuspended in 9M urea, 50 mM ammonium bicarbonate and proteins were reduced and alkylated by the addition of DTT and iodoacetamide (10 and 30 mM, respectively). Following reduction and alkylation, samples were exchanged into 2M urea (Zeba spin desalting plates, Thermo Fisher) and digested with Trypsin. IA-DTB labeled peptides were isolated with streptavidin agarose resin. Enriched peptides were eluted by the addition of 50% acetonitrile (ACN) 0.1% formic acid (FA) and dried in a SpeedVac vacuum concentrator. […] Reactions were quenched by the addition of 6.5 μL of 5% hydroxylamine. Samples were then combined and desalted on a Evolute express ABN plate (Biotage, 600-0010-PX01). Targeted TMT measurements were collected using an Orbitrap Lumos Tribrid Mass Spectrometer (Thermo Scientific) coupled to an UltiMate 3000 Series Rapid Separation LC system and autosampler (Thermo Scientific Dionex). Peptides were eluted onto a custom C18 capillary analytical column (75-μm inner diameter fused silica, packed with Acclaim PepMap C18 resin; Thermo Scientific) using an Acclaim PepMap 100 (Thermo 164535) loading column, and separated at a flow rate of […]. Data were acquired using a specific MS3-based TMT method targeting the peptide containing […], +2 charge state) where MS2 peptide fragmentation is triggered upon detection of the peptide precursor ion. Subsequent MS3 analysis was then performed using pre-selected peptide fragment ions that were isolated for fragmentation using synchronous precursor selection. RAW files were converted to MZXML format and searched with the SEQUEST algorithm using the […] software package. TMT quantitation was performed with a filter requiring at least ten summed signal-to-noise (S/N) for control channels. TE50 values were calculated from 7-point dose response curves created using the reporter ion S/N for each channel.

| Structure (SMILES) | IC50 [nM] |
| --- | --- |
| COc1ccc(S(=O)(=O)N2CCC(F)(C(=O)NC/C=C\C#N)CC2)c(-c2ccccc2Cl)c1 [Compound 71, (Z)-1-((2′-chloro-5-methoxy-[1,1′-biphenyl]-2-yl)sulfonyl)-N-(3-cyanoallyl)-4-fluoropiperidine-4-carboxamide] | 160 |
| COc1ccc(S(=O)(=O)N2CCC(F)(C(=O)NC/C=C/S(C)(=O)=O)CC2)c(-c2ccccc2Cl)c1 [Compound 43, (E)-1-((2′-chloro-5-methoxy-[1,1′-biphenyl]-2-yl)sulfonyl)-4-fluoro-N-(3-(methylsulfonyl)allyl)piperidine-4-carboxamide] | 264 |
| C[C@@H](/C=C\S(C)(=O)=O)NC(=O)C1(F)CCN(S(=O)(=O)c2ccc(Cl)cc2-c2cccc(Oc3ccccc3)c2)CC1 [Compound 267, (S,Z)-1-((5-chloro-3′-phenoxy-[1,1′-biphenyl]-2-yl)sulfonyl)-4-fluoro-N-(4-(methylsulfonyl)but-3-en-2-yl)piperidine-4-carboxamide] | 703 |
| N#C/C=C/CNC(=O)C1(F)CCN(S(=O)(=O)c2ccc(Cl)cc2-c2ccccc2Cl)CC1 [Compound 69, (E)-N-(3-cyanoallyl)-1-((2′,5-dichloro-[1,1′-biphenyl]-2-yl)sulfonyl)-4-fluoropiperidine-4-carboxamide] | 520 |
| CC(C)Oc1ccc(S(=O)(=O)N2CCC(F)(C(=O)N[C@H](C)/C=C\S(C)(=O)=O)CC2)c(-c2ccccc2Cl)c1 [Compound 105, (R,Z)-1-((2′-chloro-5-isopropoxy-[1,1′-biphenyl]-2-yl)sulfonyl)-4-fluoro-N-(4-(methylsulfonyl)but-3-en-2-yl)piperidine-4-carboxamide] | 780 |
| C[C@H](/C=C\S(C)(=O)=O)NC(=O)C1(F)CCN(S(=O)(=O)c2ccc(O)cc2-c2ccccc2Cl)CC1 [Compound 104, (R,Z)-1-((2′-chloro-5-hydroxy-[1,1′-biphenyl]-2-yl)sulfonyl)-4-fluoro-N-(4-(methylsulfonyl)but-3-en-2-yl)piperidine-4-carboxamide] | 620 |
| COc1ccc(S(=O)(=O)N2CCC(F)(C(=O)N[C@H](C)/C=C\S(C)(=O)=O)CC2)c(-c2cc(F)ccc2Cl)c1 [Compound 28, (R,Z)-1-((2′-chloro-5′-fluoro-5-methoxy-[1,1′-biphenyl]-2-yl)sulfonyl)-4-fluoro-N-(4-(methylsulfonyl)but-3-en-2-yl)piperidine-4-carboxamide] | 630 |
| COc1cccc(-c2cc(Cl)ccc2S(=O)(=O)N2CCC(F)(C(=O)N[C@H](C)/C=C/S(C)(=O)=O)CC2)c1 [Compound 80, (R,E)-1-((5-chloro-3′-methoxy-[1,1′-biphenyl]-2-yl)sulfonyl)-4-fluoro-N-(4-(methylsulfonyl)but-3-en-2-yl)piperidine-4-carboxamide] | 510 |
